How the values were obtained:
[1] = tested on: non-firing ATXN1[82Q] Purkinje neurons; test: Cell-attached recordings of Purkinje neuron spiking in acute cerebellar slices; type: cell-based, mice; conditions: 5 weeks of age, chlorzoxazone 50 μM, baclofen 10 μM, SKA-31 10 μM, 1-EBIO 100 μM
[2] = tested on: ATXN1[82Q] Purkinje neurons; test: Whole-cell patch-clamp recordings: membrane potential and after-hyperpolarization (AHP); type: cell-based, mice
[3] = tested on: ATXN1[82Q] Purkinje neurons; test: Analysis of intrinsic dendritic excitability (dendritic calcium spikes); type: cell-based, mice
[4] = both, mouse, in vivo
Protocol: (§1) SKA-31 was dissolved in drinking water at 600 μM for all studies. […] For vehicle treatment, drinking water containing 0.05% β-(hydroxypropyl)-cyclodextrin, NaOH, and sucrose was used. Water bottles were changed twice weekly. Mice were treated with water bottles beginning at 28 days of age and maintained on water bottles for the duration of the experiment.

SCA patients = conditions: human, in vivo
[5] = Water solubility (preparation of drinking water); type: physicochemical
Protocol: as §1

SMILES	restoration of repetitive (tonic) spiking in non-firing Purkinje neurons [1]	membrane potential of depolarized Purkinje neurons after the agent [2] [mV]	dendritic (hyper)excitability: threshold of injected current to elicit dendritic calcium spikes [3]	effect of baclofen on dendritic excitability in the presence of TEA ([3]; TEA 1 mM, baclofen 2 μM)	effect of baclofen on dendritic excitability in the presence of U73122 ([3]; U73122 10 μM in recording pipette (phospholipase C inhibitor), baclofen 2 μM)	effect of baclofen on dendritic excitability in the presence of barium ([3]; barium 500 μM, baclofen 2 μM)	effect of baclofen on dendritic excitability with cesium in the recording pipette ([3]; cesium chloride 140 mM in the recording pipette, baclofen 2 μM)	brain level [4] [nM]	plasma level [4] [nM]	Other comments: tolerability (SCA patients)	duration of the AHP ([2]; SKA-31 10 μM, chlorzoxazone 50 μM and baclofen 10 μM)	water solubility [5]
NCC(CC(=O)O)c1ccc(Cl)cc1 (stereo not drawn) [baclofen, Baclofen]	Neither chlorzoxazone alone nor baclofen alone consistently restores spiking	−52	reduce dendritic hyperexcitability	does not block the effect of baclofen	did not prevent the effect of baclofen on dendritic excitability	did not prevent the effect of baclofen	prevents the effect of baclofen	377.35 ± 58.50	3060 ± 510	Could not tolerate;		
Nc1nc2c(ccc3ccccc32)s1 [SKA-31, Naphtho[1,2-d]thiazol-2-ylamine]			does not reduce dendritic hyperexcitability					1830 ± 1300	39.39 ± 8.05		extended the duration of the AHP	not easily water-soluble
